Laboratory results: ChEMBL document CHEMBL6120956, “Discovery of a Potent, Orally Active, and Long-Lasting P2X7 Receptor Antagonist as a Preclinical Candidate for Delaying the Progression of Chronic Kidney Disease” (J Med Chem, 2024)
pIC50: −log10 of the molar value. Activity calls are given as the source filed them. The calls are words filed in the database; no cut-off is given here.

Tests used:
[1] = Metabolic stability in mouse liver microsomes assessed as half life; type: ADME, Microsome
P2X purinoceptor 7 = molecular target: T1, P2X purinoceptor 7 (Mus musculus, UniProt Q9Z1M0); assay: Antagonist activity against mouse P2X7 receptor expressed in ATP-stimulated HEK293 cells assessed as influx of PI by fluorescence dye uptake assay relative to control; type: cell-based
T1 sequence (Q9Z1M0 whole entry): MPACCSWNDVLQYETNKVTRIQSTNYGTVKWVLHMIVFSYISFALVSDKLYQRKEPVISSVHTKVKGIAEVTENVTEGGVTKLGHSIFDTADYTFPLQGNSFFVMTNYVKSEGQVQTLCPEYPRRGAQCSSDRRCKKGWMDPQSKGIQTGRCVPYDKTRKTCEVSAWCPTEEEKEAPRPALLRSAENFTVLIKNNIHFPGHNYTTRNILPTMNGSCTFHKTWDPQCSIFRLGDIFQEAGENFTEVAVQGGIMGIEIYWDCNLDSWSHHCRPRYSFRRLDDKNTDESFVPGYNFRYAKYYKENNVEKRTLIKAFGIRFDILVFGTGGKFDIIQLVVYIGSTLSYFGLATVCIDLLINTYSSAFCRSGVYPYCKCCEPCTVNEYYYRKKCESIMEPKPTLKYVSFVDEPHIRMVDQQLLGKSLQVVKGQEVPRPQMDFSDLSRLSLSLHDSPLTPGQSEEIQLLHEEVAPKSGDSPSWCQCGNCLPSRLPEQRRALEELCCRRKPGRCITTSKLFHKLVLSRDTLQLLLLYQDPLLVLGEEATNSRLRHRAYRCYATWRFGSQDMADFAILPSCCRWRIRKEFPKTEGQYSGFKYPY

[2] = Metabolic stability in human liver microsomes assessed as clearance; type: ADME, Microsome; conditions: read-out: CLH
[3] = Metabolic stability in human liver microsomes assessed as half life; type: ADME, Microsome
[4] = Metabolic stability in mouse liver microsomes assessed as clearance; type: ADME, Microsome; conditions: read-out: CLH
[5] = molecular target: T2, P2X purinoceptor 7 (Mus musculus) (UniProt Q9Z1M0); assay: Antagonist activity against mouse P2X7 receptor expressed in ATP-stimulated HEK293 cells assessed as influx of PI at 1 uM by fluorescence dye uptake assay relative to control; type: cell-based; set-up: scale not given: the % may be the effect or the level left
T2 sequence (whole entry): T1 sequence (Q9Z1M0 whole entry)

[6] = molecular target: T2, P2X purinoceptor 7 (Mus musculus); assay: Antagonist activity against mouse P2X7 receptor expressed in ATP-stimulated HEK293 cells assessed as influx of PI at 200 nM by fluorescence dye uptake assay relative to control; type: cell-based; set-up: scale not given: the % may be the effect or the level left
[7] = Tmax in male BALB/c mouse at 10 mg/kg, po single administration measured upto 72 hrs by LC-MS/MS analysis; type: ADME, organism-based; conditions: in vivo
[8] = Half life in male BALB/c mouse at 10 mg/kg, po single administration measured upto 72 hrs by LC-MS/MS analysis; type: ADME, organism-based; conditions: in vivo
[9] = Clearance in male BALB/c mouse at 10 mg/kg, po single administration measured upto 72 hrs by LC-MS/MS analysis; type: ADME, organism-based; conditions: in vivo
[10] = AUC (0 to t) in male BALB/c mouse at 10 mg/kg, po single administration measured upto 72 hrs by LC-MS/MS analysis; type: ADME, organism-based; conditions: in vivo
[11] = Cmax in male BALB/c mouse at 10 mg/kg, po single administration measured upto 72 hrs by LC-MS/MS analysis; type: ADME, organism-based; conditions: in vivo

Structure (SMILES) | Activity [5] | Activity [6] | also measured
CS(=O)(=O)c1ccc(-c2ncc(C(=O)NCc3cn(-c4cc(NC5CC(F)(F)C5)ccn4)nn3)s2)cc1 |  |  | half-life [1]: 0.67 h; pIC50 (P2X purinoceptor 7): 6.86; CLint scaled [2]: < 12 mL/min/kg; half-life [3]: > 2 h; CLint scaled [4]: 142 mL/min/kg
CS(=O)(=O)c1ccc(-c2ncc(C(=O)NCc3cn(-c4ccncc4Br)nn3)s2)cc1 | 41% | 25.9% | 
CS(=O)(=O)c1ccc(-c2nc(C(=O)NCc3cn(-c4ccncc4Br)nn3)cs2)cc1 | 39.5% | 28.6% | 
CS(=O)(=O)c1ccc(-c2ncc(C(=O)NCc3cn(-c4ccc(Br)nc4)nn3)s2)cc1 | 42.8% | 35% | 
COc1ccnc(-n2cc(CNC(=O)c3csc(-c4ccc(S(C)(=O)=O)cc4)n3)nn2)c1 | 20.2% | 6% | 
CS(=O)(=O)c1ccc(-c2nc(C(=O)NCc3cn(-c4ccc(Cl)cn4)nn3)cs2)cc1 | inactive | inactive | 
CS(=O)(=O)c1ccc(-c2nc(C(=O)NCc3cn(-c4ccc(Br)nc4)nn3)cs2)cc1 | 10% | inactive | 
CS(=O)(=O)c1ccc(-c2nc(C(=O)NCc3cn(-c4cncc(Br)c4)nn3)cs2)cc1 | 23.9% | 17.7% | 
CS(=O)(=O)c1ccc(-c2ncc(C(=O)NCc3cn(-c4ccnc(Br)c4)nn3)s2)cc1 | inactive | inactive | 
CS(=O)(=O)c1ccc(-c2ncc(C(=O)NCc3cn(-c4cc(N5CCC(F)(F)CC5)ccn4)nn3)s2)cc1 |  |  | half-life [1]: 0.987 h; pIC50 (P2X purinoceptor 7): 7.21; CLint scaled [2]: 21.8 mL/min/kg; half-life [3]: 1.33 h; CLint scaled [4]: 92.1 mL/min/kg
CS(=O)(=O)c1ccc(-c2nc(C(=O)NCc3cn(-c4cc(Br)ccn4)nn3)cs2)cc1 |  |  | Tmax [7]: 1.17 h; half-life [8]: 1.91 h; CL/F [9]: 25.8 mL/min/kg; AUC(0-t) at 72 h [10]: 6510 ng·h/mL; Cmax [11]: 1300 ng/mL
CS(=O)(=O)c1ccc(-c2nc(C(=O)NCc3cn(-c4cccc(Br)n4)nn3)cs2)cc1 | 50% | 15.6% | 
CS(=O)(=O)c1ccc(-c2ncc(C(=O)NCc3cn(-c4ccc(Cl)cn4)nn3)s2)cc1 | 28.1% | inactive | 
CS(=O)(=O)c1ccc(-c2nc(C(=O)NCc3cn(-c4cc(-c5cccc(C(F)(F)F)c5)ccn4)nn3)cs2)cc1 |  |  | pIC50 (P2X purinoceptor 7): 6.35
CS(=O)(=O)c1ccc(-c2ncc(C(=O)NCc3cn(-c4cncc(Br)c4)nn3)s2)cc1 | 36.8% | 33.5% | 
CS(=O)(=O)c1ccc(-c2ncc(C(=O)NCc3cn(-c4cc(Nc5cnn(C(F)F)c5)ccn4)nn3)s2)cc1 | 32.5% | 26.6% | 
CS(=O)(=O)c1ccc(-c2nc(C(=O)NCc3cn(-c4ccc(F)cn4)nn3)cs2)cc1 | 48.4% | 13.3% | 
CS(=O)(=O)c1ccc(-c2nc(C(=O)NCc3cn(-c4ccnc(Br)c4)nn3)cs2)cc1 | inactive | inactive | 
CS(=O)(=O)c1ccc(-c2ncc(C(=O)NCc3cn(-c4cccc(Br)n4)nn3)s2)cc1 | 45% | 10.7% | 
C[C@H](NC(=O)c1csc(-c2ccc(S(C)(=O)=O)cc2)n1)c1cn(-c2cc(C(F)(F)F)ccn2)nn1 |  |  | half-life [1]: > 2 h; Tmax [7]: 7.33 h; pIC50 (P2X purinoceptor 7): 7.01; half-life [8]: 7.38 h; CL/F [9]: 1.5 mL/min/kg; CLint scaled [2]: < 12 mL/min/kg; AUC(0-t) at 72 h [10]: 107000 ng·h/mL; half-life [3]: > 2 h; CLint scaled [4]: < 12 mL/min/kg; Cmax [11]: 3230 ng/mL
CS(=O)(=O)c1ccc(-c2ncc(C(=O)NCc3cn(-c4cc(C(F)(F)F)ccn4)nn3)s2)cc1 |  |  | half-life [1]: > 2 h; Tmax [7]: 2 h; pIC50 (P2X purinoceptor 7): 7.09; half-life [8]: 3.35 h; CL/F [9]: 11.8 mL/min/kg; CLint scaled [2]: < 12 mL/min/kg; AUC(0-t) at 72 h [10]: 14100 ng·h/mL; half-life [3]: > 2 h; CLint scaled [4]: 22.8 mL/min/kg; Cmax [11]: 2230 ng/mL
Cc1ccnc(-n2cc(CNC(=O)c3csc(-c4ccc(S(C)(=O)=O)cc4)n3)nn2)c1 | 5.1% | inactive | 
CS(=O)(=O)c1ccc(-c2nc(C(=O)NCc3cn(-c4cc(N5CCC(F)(F)CC5)ccn4)nn3)cs2)cc1 |  |  | half-life [1]: 0.333 h; pIC50 (P2X purinoceptor 7): 6.99; CLint scaled [2]: 54.2 mL/min/kg; half-life [3]: 0.535 h; CLint scaled [4]: 273 mL/min/kg
CS(=O)(=O)c1ccc(-c2nc(C(=O)NCc3cn(-c4cc(Nc5cnn(C(F)F)c5)ccn4)nn3)cs2)cc1 | 11.4% | 28.7% | 
CS(=O)(=O)c1ccc(-c2nc(C(=O)NCc3cn(-c4cc(NC5CC(F)(F)C5)ccn4)nn3)cs2)cc1 |  |  | half-life [1]: 0.547 h; pIC50 (P2X purinoceptor 7): 7.26; CLint scaled [2]: 13.8 mL/min/kg; half-life [3]: > 2 h; CLint scaled [4]: 166 mL/min/kg
CS(=O)(=O)c1ccc(-c2nc(C(=O)NCc3cn(-c4cc(C(F)(F)F)ccn4)nn3)cs2)cc1 |  |  | half-life [1]: > 2 h; Tmax [7]: 1.83 h; pIC50 (P2X purinoceptor 7): 7.15; half-life [8]: 4.08 h; CL/F [9]: 3.33 mL/min/kg; CLint scaled [2]: < 12 mL/min/kg; AUC(0-t) at 72 h [10]: 49800 ng·h/mL; half-life [3]: > 2 h; CLint scaled [4]: < 12 mL/min/kg; Cmax [11]: 4530 ng/mL
Clc1cccc(-n2nnnc2NCc2ccccc2Oc2ccccn2)c1Cl | 96.3% | 90.7% | 

Second part, led by results:

Activity [5] | Activity [6] | Structure (SMILES) | also measured
49.6% | 42.8% | CS(=O)(=O)c1ccc(-c2ncc(C(=O)NCc3cn(-c4cc(-c5cncc(C(F)(F)F)c5)ccn4)nn3)s2)cc1 | 
32.5% | 30.3% | CS(=O)(=O)c1ccc(-c2nc(C(=O)NCc3cn(-c4cc(-c5cncc(C(F)(F)F)c5)ccn4)nn3)cs2)cc1 | 
35.6% | 18.4% | CS(=O)(=O)c1ccc(-c2ncc(C(=O)NCc3cn(-c4cc(-c5ccc(C(F)(F)F)s5)ccn4)nn3)s2)cc1 | 
37% | 27.1% | CS(=O)(=O)c1ccc(-c2nc(C(=O)NCc3cn(-c4cc(-c5ccc(C(F)(F)F)cc5)ccn4)nn3)cs2)cc1 | 
44.4% | 30.7% | Cc1ccnc(-n2cc(CNC(=O)c3cnc(-c4ccc(S(C)(=O)=O)cc4)s3)nn2)c1 | 
28.7% | 24.9% | CS(=O)(=O)c1ccc(-c2nc(C(=O)NCc3cn(-c4cc(-c5ccc(C(F)(F)F)s5)ccn4)nn3)cs2)cc1 | 
27.4% | 13.3% | CS(=O)(=O)c1ccc(-c2ncc(C(=O)NCc3cn(-c4cc(-c5cccc(C(F)(F)F)c5)ccn4)nn3)s2)cc1 | 
9.9% | inactive | COc1ccnc(-n2cc(CNC(=O)c3cnc(-c4ccc(S(C)(=O)=O)cc4)s3)nn2)c1 | 
inactive | inactive | CS(=O)(=O)c1ccc(-c2ncc(C(=O)NCc3cn(-c4cc(-c5ccc(C(F)(F)F)cc5)ccn4)nn3)s2)cc1 | 
25.7% | 12.4% | CS(=O)(=O)c1ccc(-c2ncc(C(=O)NCc3cn(-c4ccc(F)cn4)nn3)s2)cc1 | 
